Experimental data: patent US9073863B2, “Cyanoquinoline compounds having activity in correcting mutant-CFTR processing and increasing ion transport and uses thereof” (The Regents of the University of California, priority 2011, dated 2015)

Assays:
Format in all cases: cell-based
ΔF508-CFTR [1] = molecular target: T1, ΔF508-CFTR (Homo sapiens, UniProt P13569, DEL508-508); experiment: Potentiator assay, YFP fluorescence plate reader iodide influx in low-temperature rescued ΔF508-CFTR expressing FRT cells
T1 construct: expressed in transfected cells; host or cells: Fischer rat thyroid (FRT) epithelial cells, stably transfected
T1 sequence (P13569 with tags, fused parts or gaps DEL508-508): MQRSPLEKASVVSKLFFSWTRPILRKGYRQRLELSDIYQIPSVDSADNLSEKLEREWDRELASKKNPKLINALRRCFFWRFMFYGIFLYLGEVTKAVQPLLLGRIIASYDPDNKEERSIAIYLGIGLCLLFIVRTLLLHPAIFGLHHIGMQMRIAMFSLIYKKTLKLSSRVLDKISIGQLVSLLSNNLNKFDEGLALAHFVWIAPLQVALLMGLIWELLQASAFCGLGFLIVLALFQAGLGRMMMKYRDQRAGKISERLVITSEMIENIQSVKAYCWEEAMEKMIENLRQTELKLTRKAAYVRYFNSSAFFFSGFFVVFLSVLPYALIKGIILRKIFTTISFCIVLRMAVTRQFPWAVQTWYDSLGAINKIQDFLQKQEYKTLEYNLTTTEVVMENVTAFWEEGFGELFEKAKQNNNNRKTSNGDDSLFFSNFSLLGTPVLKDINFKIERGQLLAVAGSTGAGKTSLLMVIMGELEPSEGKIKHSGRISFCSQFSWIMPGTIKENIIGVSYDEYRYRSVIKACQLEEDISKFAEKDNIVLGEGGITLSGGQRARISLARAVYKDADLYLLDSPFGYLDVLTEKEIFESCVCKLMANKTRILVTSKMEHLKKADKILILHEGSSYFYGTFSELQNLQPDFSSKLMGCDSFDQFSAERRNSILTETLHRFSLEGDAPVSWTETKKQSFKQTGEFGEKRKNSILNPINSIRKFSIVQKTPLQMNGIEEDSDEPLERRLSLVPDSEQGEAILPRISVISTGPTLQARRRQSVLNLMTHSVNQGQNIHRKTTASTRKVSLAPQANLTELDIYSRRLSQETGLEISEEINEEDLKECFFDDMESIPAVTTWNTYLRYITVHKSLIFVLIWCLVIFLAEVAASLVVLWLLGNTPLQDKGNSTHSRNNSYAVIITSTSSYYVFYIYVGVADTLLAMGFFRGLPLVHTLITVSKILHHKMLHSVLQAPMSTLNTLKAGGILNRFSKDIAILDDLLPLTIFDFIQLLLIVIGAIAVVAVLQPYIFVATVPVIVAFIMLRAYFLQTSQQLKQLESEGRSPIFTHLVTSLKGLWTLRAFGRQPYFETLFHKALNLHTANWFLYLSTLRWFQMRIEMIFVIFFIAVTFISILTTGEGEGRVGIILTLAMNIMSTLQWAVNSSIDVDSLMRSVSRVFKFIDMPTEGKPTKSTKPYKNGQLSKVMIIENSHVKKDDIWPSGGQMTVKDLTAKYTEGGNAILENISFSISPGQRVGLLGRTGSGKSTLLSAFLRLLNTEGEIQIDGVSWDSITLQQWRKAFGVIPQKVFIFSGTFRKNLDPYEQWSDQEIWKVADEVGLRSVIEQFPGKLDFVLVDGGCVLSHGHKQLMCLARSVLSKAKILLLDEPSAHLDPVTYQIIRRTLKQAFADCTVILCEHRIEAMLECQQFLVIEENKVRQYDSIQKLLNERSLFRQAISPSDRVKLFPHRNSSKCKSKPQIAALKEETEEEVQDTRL
Procedure: (§1) Screening procedures. Screening of compounds for activity was carried out using a Beckman Coulter platform equipped with FLUOstar fluorescence plate readers (Optima; BMG Labtech) with dual syringe pumps and 500±10 nm excitation and 535±15 nm emission filters (Chroma Corp.). For the corrector assay, FRT cells were grown at 37° C./5% CO2 for 18-24 h and then incubated for 18-24 h with 100 μL of medium containing test compounds (25 μM final concentration). At the time of the assay, cells were washed with PBS and then incubated for 10 min with PBS containing forskolin (20 μM) and genistein (50 μM). For the potentiator assay, FRT cells were grown at 37° C./5% CO2 for 18-24 h and then for 18-24 h at 27° C. At the time of the assay, cells were washed with PBS and then incubated for 10 min with PBS (50 μL) containing forskolin (20 μM) and test compound (0-25 μM final concentration). For both the corrector and potentiator assays, each well was assayed individually for I^− influx by recording fluorescence continuously (200 ms per point) for 2 s (baseline) and then for 12 s after rapid addition of 165 μL PBS in which 137 mM Cl^− was replaced by I^−. Initial I^− influx rate was computed by fitting the final 11.5 seconds of the data to an exponential for extrapolation of initial slope, which was normalized for background-subtracted initial fluorescence. All compound plates contained negative controls and positive controls (10 μM Corr-4a for corrector assay; 50 μM genistein for potentiator assay).
(§2) Screening of about 110,000 small molecules was done to identify new ΔF508-CFTR corrector scaffolds having high correction efficiency and/or having independent potentiator activity. […] FRT cells co-expressing human ΔF508-CFTR and a halide-sensing YFP were incubated with test compounds at 37° C. (corrector assay) or 27° C. (potentiator assay). ΔF508-CFTR function was assayed in a plate reader from YFP fluorescence quenching in response to iodide addition in the presence of forskolin (20 μM) plus genistein (50 μM) for corrector assay, or forskolin (20 μM) alone for potentiator assay. As shown in FIG. 1A (left), primary screening for corrector activity was done using a cell-based fluorescence assay of iodide influx in which FRT cells expressing ΔF508-CFTR and an iodide-sensitive YFP were incubated with test compounds at 10 μM for 18-24 h prior to assay. Iodide influx was measured by addition of extracellular iodide in the presence of a potentiator (50 μM genistein) and cAMP agonist (20 μM forskolin). Compound efficacy and potency (from concentration-dependence studies) in the corrector assay were compared to reference bithiazole Corr-4a (10 μM) and to low-temperature rescued cells. Active compounds were counter-screened for potentiator activity (FIG. 1A, right) in which iodide influx was measured in the ΔF508-CFTR expressing FRT cells after low-temperature rescue and in the presence of 20 μM forskolin.
(§3) Screening procedures. Plate reader activity assay was carried out using a Beckman Coulter platform containing a robotic arm, CO2 incubator containing microplate carousel, plate-washer, liquid handling work station, bar code reader, de-lidding station, plate sealer, and FLUOstar fluorescence plate readers (Optima; BMG LABTECH Gmbh), equipped with dual syringe pumps and 500±10 nm excitation and 535±15 nm emission filters (Chroma Corp.). For the corrector assay, ΔF508-CFTR-expressing FRT cells were grown at 37° C. (90% humidity; 5% CO2) for 18-24 h and then incubated for 18-24 h with 100 μL of medium containing test compounds (0-25 μM final concentration). At the time of the assay, cells were washed with PBS and then incubated for 10 min with PBS containing forskolin (20 μM) and genistein (50 μM). For the potentiator assay, FRT cells were grown at 37° C. (90% humidity; 5% CO2) for 18-24 h and then for 18-24 h at 27° C. […]

ΔF508-CFTR [2] = molecular target: T1, ΔF508-CFTR; experiment: Corrector assay, YFP fluorescence plate reader iodide influx in ΔF508-CFTR expressing FRT cells; settings: for Corrector Vmax / EC50 / Corrector EC50: 18-24 h with compound at 37° C., forskolin 20 μM + genistein 50 μM; for corrector and potentiator activities, in words: concentration-dependence in corrector and potentiator I− influx assays (FIG. 2, FIG. 7)
Procedure: as §1, §2, §3

ΔF508-CFTR [3] = molecular target: T1, ΔF508-CFTR; experiment: Short-circuit current (apical membrane chloride current) corrector assay in ΔF508-CFTR expressing FRT cells; settings: 10 μM, 18-24 h incubation
Procedure: Short-circuit current measurements. ΔF508-CFTR-expressing FRT cells were cultured on Snapwell inserts for 7-9 days. For corrector testing, test compounds were incubated with FRT cells for 18-24 h at 37° C. prior to measurements. For potentiator testing, the FRT cells were incubated for 18-24 h at 27° C. prior to measurements. The basolateral solution contained 130 mM NaCl, 2.7 mM KCl, 1.5 mM KH2PO4, 1 mM CaCl2, 0.5 mM MgCl2, 10 mM glucose, and 10 mM Na-HEPES (pH 7.3). In the apical bathing solution, 65 mM NaCl was replaced by Na gluconate, and CaCl2 was increased to 2 mM. Solutions were bubbled with air and maintained at 37° C. The basolateral membrane was permeabilized with 250 μg/ml amphotericin B. Hemichambers were connected to a DVC-1000 voltage clamp (World Precision Instruments Inc.) via Ag/AgCl electrodes and 1 M KCl agar bridges for recording of short-circuit current.
Short-circuit current was measured as a definitive electrophysiological assay to verify Compound 22 corrector action. Apical membrane chloride current was measured in ΔF508-CFTR expressing FRT cells after basolateral membrane permeabilization and in the presence of a transepithelial chloride gradient (apical, 65 mM; basolateral, 130 mM). In FIG. 3C, incubation with Corr-4a (5 μM) is shown as reference (right). Forskolin (20 μM), genistein (50 μM) and CFTRinh-172 (10 μM) were added where indicated. […] FIG. 3D summarizes Compound 22 concentration dependence data from short-circuit current studies. […]
Short-circuit current was measured in an electrophysiology assay to verify corrector activity. Apical membrane chloride current was measured in ΔF508-CFTR expressing FRT cells after basolateral membrane permeabilization and in the presence of a transepithelial chloride gradient. […] To assay potentiator activity apical membrane chloride current was measured after low-temperature rescue, in response to CP-3 addition. CP-3 concentration-dependent increases in apical membrane current were measured in the presence of 5 μM forskolin. […]

[4] = Table IX, additional experiments, 18-24 h at 27° C., forskolin 20 μM + test compound
[5] = Table IX, additional experiments
[6] = Table VIII, FRT cells 18-24 h at 27° C., forskolin 20 μM + test compound, I− influx
[7] = Table VIII, FRT cells, I− influx

SMILES	Potentiator Vmax (ΔF508-CFTR [1]; [4])	Corrector Vmax (ΔF508-CFTR [2]; [5])	Potentiator Vmax (ΔF508-CFTR [1]; [6])	Corrector Vmax (ΔF508-CFTR [2]; [7])	further results
Cc1cc(C)c2cc(C#N)c(NCCNC(=O)c3ccncc3)nc2c1 [drawing 169]	220 µM/s	176 µM/s			EC50 (ΔF508-CFTR [1]; [4]): 10 ± 3.1 µM; EC50 (ΔF508-CFTR [2]; [5]): 7.3 ± 0.8 µM
Cc1ccc2cc(C#N)c(N3CCCN(C(=O)c4cccs4)CC3)nc2c1			261 µM/s	inactive	EC50 (ΔF508-CFTR [1]; [6]): 13 µM; Corrector EC50 (ΔF508-CFTR [2]; [7]): inactive
CCOc1ccccc1NC(=S)NCCNc1nc2c(C)cccc2cc1C#N [drawing 144]			275 µM/s	inactive	EC50 (ΔF508-CFTR [1]; [6]): 6 µM; Corrector EC50 (ΔF508-CFTR [2]; [7]): inactive
Cc1cc(C)c2cc(C#N)c(NCCCNC(=O)c3ccccn3)nc2c1 [drawing 179]	233 µM/s	inactive			
COc1cccc(C(=O)NCCNc2nc3cc(C)cc(C)c3cc2C#N)c1 [drawing 164]	216 µM/s	300 µM/s			EC50 (ΔF508-CFTR [1]; [4]): 5.9 ± 0.5 µM; EC50 (ΔF508-CFTR [2]; [5]): 2.2 ± 0.3 µM
Cc1cc(C)c2cc(C#N)c(N3CCN(C(=O)c4cccnc4)CC3)nc2c1 [drawing 174]	inactive	inactive			Potentiator EC50 (ΔF508-CFTR [1]; [4]): inactive; Corrector EC50 (ΔF508-CFTR [2]; [5]): inactive
Cc1cc(C)c2cc(C#N)c(NCCNC(=O)c3cccnc3)nc2c1 [drawing 150]			152 µM/s	223 µM/s	EC50 (ΔF508-CFTR [1]; [6]): 11 µM; EC50 (ΔF508-CFTR [2]; [7]): 15.2 µM
COc1ccccc1C(=O)NCCCNc1nc2cc(C)cc(C)c2cc1C#N	254 µM/s	inactive			EC50 (ΔF508-CFTR [1]; [4]): 27.6 ± 2 µM
COc1cccc(OC)c1C(=O)NCCNc1nc2cc(C)cc(C)c2cc1C#N	119 µM/s	111 µM/s			EC50 (ΔF508-CFTR [1]; [4]): 11.5 ± 1 µM; EC50 (ΔF508-CFTR [2]; [5]): 3.7 ± 0.6 µM
COc1cccc(C(=O)NCCCNc2nc3cc(C)cc(C)c3cc2C#N)c1 [drawing 177]	147 µM/s	134 µM/s			
COc1ccc(C(=O)NCCCNc2nc3cc(C)cc(C)c3cc2C#N)cc1 [drawing 160]			231 µM/s	112 µM/s	EC50 (ΔF508-CFTR [1]; [6]): 5 µM
COc1cccc(C(=O)NCCNc2nc3cc(C)cc(C)c3cc2C#N)c1 [drawing 146]			306 µM/s	300 µM/s	
COc1ccc(C(=O)NCCNc2nc3cc(C)cc(C)c3cc2C#N)cc1 [drawing 166]	181 µM/s	172 µM/s			
COc1ccc(C(=O)NCCNc2nc3cc(C)cc(C)c3cc2C#N)cc1 [Compound CP3]					apical membrane current (corrector) (ΔF508-CFTR [3]): increase in apical membrane current; corrector and potentiator activities, in words (ΔF508-CFTR [2]): both corrector and potentiator activities
COc1ccccc1C(=O)N1CCN(c2nc3cc(C)cc(C)c3cc2C#N)CC1 [drawing 170]	129 µM/s	inactive			EC50 (ΔF508-CFTR [1]; [4]): 1 ± 0.3 µM; Corrector EC50 (ΔF508-CFTR [2]; [5]): inactive
Cc1cc(C)c2cc(C#N)c(NCCNC(=O)c3ccccn3)nc2c1 [drawing 167]	80 µM/s	inactive			EC50 (ΔF508-CFTR [1]; [4]): 1.2 ± 0.4 µM; Corrector EC50 (ΔF508-CFTR [2]; [5]): inactive
Cc1cc(C)c2cc(C#N)c(NCCNC(=O)c3ccccn3)nc2c1 [drawing 149]			80 µM/s	inactive	
COc1ccc(C(=O)NCCNc2nc3cc(C)cc(C)c3cc2C#N)cc1OC [drawing 185]	216 µM/s	380 µM/s			EC50 (ΔF508-CFTR [1]; [4]): 48 ± 5 µM; EC50 (ΔF508-CFTR [2]; [5]): 1.5 ± 0.4 µM
COc1ccc2nc(N3CCN(C(=O)c4ccccc4Cl)CC3)c(C#N)cc2c1			261 µM/s	inactive	EC50 (ΔF508-CFTR [1]; [6]): 13 µM; Corrector EC50 (ΔF508-CFTR [2]; [7]): inactive
Cc1cc(C)c2cc(C#N)c(NCCNC(=O)c3ccncc3)nc2c1 [drawing 151]			220 µM/s	172 µM/s	EC50 (ΔF508-CFTR [2]; [7]): 9.1 µM
COc1ccccc1C(=O)N1CCN(c2nc3cc(C)cc(C)c3cc2C#N)CC1 [Compound AW1]					potentiator activity, in words (ΔF508-CFTR [1]; piperazine ring in place of diamino ethylene tether): significant potentiator activity; corrector and potentiator activities, in words (ΔF508-CFTR [2]): potentiator-only activity
COc1ccccc1C(=O)NCCNc1nc2cc(C)cc(C)c2cc1C#N [drawing 165]	154 µM/s	114 µM/s			EC50 (ΔF508-CFTR [2]; [5]): 11 ± 0.9 µM
COc1ccc(C(=O)N2CCN(c3nc4cc(C)cc(C)c4cc3C#N)CC2)cc1 [drawing 154]			281 µM/s	inactive	EC50 (ΔF508-CFTR [1]; [6]): 1.3 µM
COc1cccc(C(=O)N2CCN(c3nc4cc(C)cc(C)c4cc3C#N)CC2)c1 [drawing 153]			200 µM/s	inactive	EC50 (ΔF508-CFTR [1]; [6]): 1.2 µM
COc1ccc(C(=O)NCCCNc2nc3cc(C)cc(C)c3cc2C#N)cc1 [drawing 178]	231 µM/s	112 µM/s			EC50 (ΔF508-CFTR [2]; [5]): 4.3 ± 0.2 µM
